ChEMBL document CHEMBL1201862, “PubChem BioAssay data set” (2004)
The source made the active and inactive calls.

Legend:
[1] = Luminescence Cell-Based Dose Retest to Confirm Inhibitors of Cancer Stem Cells. [Related pubchem assays (depositor defined):AID2717, AID2721]; format: functional; conditions: Homo sapiens
[2] = target: T1, Heat shock factor protein 1 (Mus musculus, UniProt P38532); assay: HSF1 potentiators in luciferase reporter cells, confirmation, cell-based, NIH3T3, luminescence, dose retest (AID 435004); format: functional;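 also: stress induced by proteasome inhibitor MG132 added 30 min after compound; luciferase reporter driven by HSF1 response element in NIH3T3 cells; actives raise luminescence as potentiators of the MG132 stress response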
T1 sequence (P38532 whole entry): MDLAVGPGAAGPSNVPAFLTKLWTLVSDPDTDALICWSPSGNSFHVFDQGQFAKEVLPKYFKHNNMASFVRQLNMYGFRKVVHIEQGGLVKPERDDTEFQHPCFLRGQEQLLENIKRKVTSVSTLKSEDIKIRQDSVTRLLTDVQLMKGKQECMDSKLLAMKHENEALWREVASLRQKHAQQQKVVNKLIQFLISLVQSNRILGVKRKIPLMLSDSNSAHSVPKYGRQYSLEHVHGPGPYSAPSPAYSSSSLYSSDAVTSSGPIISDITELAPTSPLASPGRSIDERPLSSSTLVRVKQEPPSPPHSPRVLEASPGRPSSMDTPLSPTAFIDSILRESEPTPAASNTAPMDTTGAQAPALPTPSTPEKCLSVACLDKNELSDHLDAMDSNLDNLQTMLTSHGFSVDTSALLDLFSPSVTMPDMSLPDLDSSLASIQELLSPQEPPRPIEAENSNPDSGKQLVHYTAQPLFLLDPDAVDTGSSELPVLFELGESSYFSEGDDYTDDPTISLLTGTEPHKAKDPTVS

[3] = cytotoxicity in HMLE control line with eGFP shRNA, dose response, counter-screen for HMLE_sh_ECad selective toxicity project, cell-based, HMLE_sh_eGFP, luminescence (AID 463074); format: functional, Homo sapiens;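 also: HMLE human mammary epithelial cells expressing control shRNA against eGFP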
Escherichia coli = assay: microbe, parasite or virus in culture
[4] = insulin promoter down-regulators in MIN6 cells, imaging, high-content screening, mouse beta cells (AID 1628); format: functional
[5] = cytotoxicity in MIN6 insulinoma cells, dose response, cytotoxicity control, cell-based, mouse insulinoma (AID 2122); format: functional;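 also: confirmatory high-throughput counterscreen run to flag cytotoxic compounds; mouse MIN-6 beta cells carrying an insulin promoter eGFP reporter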
Cytochrome P450 2C19 = Cytochrome P450 2C19 (Homo sapiens, UniProt P33261); assay: Cytochrome panel assay with activity outcomes. Panel member name: p450-cyp2c19 Compounds with AC50 equal or less than 10 uM are considered active; format: functional; conditions: read-out: AC50
Cytochrome P450 2D6 = Cytochrome P450 2D6 (Homo sapiens, UniProt P10635);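 also: CYP2D6 member of a cytochrome P450 panel assay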
[6] = inhibitors of firefly luciferase expression or activity, dose response, H4 neuroglioma cells, luminescence (AID 1990); format: functional, cell-based
[7] = Luminescence Cell-Based Dose Response HTS to Identify Inhibitors of 5'UTR Stem-Loop Driven Prion Protein mRNA Translation in H4 Neuroglioblastoma Cells. [Related pubchem assays: 1827 (Project Summary), 1813 (Primary HTS)]; format: functional
[8] = inhibitors of SNCA 5'UTR-driven reporter translation, confirmation, H4 neuroglioma cells, luminescence (AID 1988); format: functional, cell-based
[9] = microbe, parasite or virus in culture; format: functional; conditions: Mycobacterium tuberculosis
CAAX prenyl protease 2 = CAAX prenyl protease 2 (Homo sapiens, UniProt Q9Y256); assay: human Rce1 protease inhibitors, dose response, biochemical, yeast membranes, quenched-peptide fluorescence, cherry-pick (AID 588849)
BJ [10] = assay: cytotoxicity toward BJ-TERT fibroblasts, dose response, cell-based, RAS-independent, luminescence (AID 1933); format: functional; conditions: Homo sapiens
[11] = target: T1, Heat shock factor protein 1; assay: inhibition of MG132-induced HSE-luciferase signal, confirmation, cell-based, NIH3T3, luminescence, dose retest (AID 2382); format: functional;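 also: NIH3T3 fibroblasts with HSF1-driven luciferase reporter stressed by proteasome inhibitor MG132; luminescence from HSF1-driven luciferase expression after 8 hours of MG132 stress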
BJ [12] = assay: cells; format: functional, cell-based; conditions: Homo sapiens
BJ [13] = assay: cytotoxicity toward BJ-TERT-LT-ST fibroblasts, dose response, cell-based, RAS-independent, luminescence (AID 1935); format: functional; conditions: Homo sapiens;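 also: BJ fibroblasts immortalized with TERT plus LT and ST oncogenes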
[14] = cytotoxicity toward DRD oncogenic fibroblasts, dose response, cell-based, non-viral oncogenic, luminescence (AID 1934); format: functional; conditions: Homo sapiens
BJ [15] = assay: cytotoxicity toward Ras-transformed BJeLR fibroblasts, dose response, cell-based, alamar blue fluorescence, cherrypicked samples (AID 2631); format: functional; conditions: Homo sapiens;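 also: confirmatory dose-response assay in RAS-dependent BJ fibroblasts engineered with TERT, LT and ST, with cytotoxicity read by fluorescence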
Exodeoxyribonuclease V = Exodeoxyribonuclease V (Escherichia coli (strain K12), UniProt P04993+P07648+P08394); assay: E. coli RecBCD inhibitors, dose response, counter-screen for AddAB inhibitor project, absorbance, V66 E. coli, mutant T4 phage (AID 492957); format: functional, cell-based, Escherichia coli str. K-12 substr. MG1655
Nonstructural protein 1 = Nonstructural protein 1 (Influenza A virus, UniProt Q194T2); format: functional, Influenza A virus (A/California/07/2009(H1N1))
[16] = Counterscreen for AddAB inhibitors: absorbance-based bacterial cell-based high throughput dose response assay for inhibitors of bacterial viability. [Related pubchem assays (depositor defined):AID435030, AID449728, AID449731, AID488942, AID488955, AID488956]; format: functional
[17] = human group III sPLA2 inhibitors, dose response, biochemical, QFRET, IC50 (AID 743457);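 also: green fluorescence rise as the enzyme cleaves BODIPY PC-A2 in liposomes; potency for inhibition of the enzyme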
Protein skinhead-1 = target: T2, Protein skinhead-1 (Caenorhabditis elegans, UniProt P34707); format: functional
T2 sequence (P34707 whole entry): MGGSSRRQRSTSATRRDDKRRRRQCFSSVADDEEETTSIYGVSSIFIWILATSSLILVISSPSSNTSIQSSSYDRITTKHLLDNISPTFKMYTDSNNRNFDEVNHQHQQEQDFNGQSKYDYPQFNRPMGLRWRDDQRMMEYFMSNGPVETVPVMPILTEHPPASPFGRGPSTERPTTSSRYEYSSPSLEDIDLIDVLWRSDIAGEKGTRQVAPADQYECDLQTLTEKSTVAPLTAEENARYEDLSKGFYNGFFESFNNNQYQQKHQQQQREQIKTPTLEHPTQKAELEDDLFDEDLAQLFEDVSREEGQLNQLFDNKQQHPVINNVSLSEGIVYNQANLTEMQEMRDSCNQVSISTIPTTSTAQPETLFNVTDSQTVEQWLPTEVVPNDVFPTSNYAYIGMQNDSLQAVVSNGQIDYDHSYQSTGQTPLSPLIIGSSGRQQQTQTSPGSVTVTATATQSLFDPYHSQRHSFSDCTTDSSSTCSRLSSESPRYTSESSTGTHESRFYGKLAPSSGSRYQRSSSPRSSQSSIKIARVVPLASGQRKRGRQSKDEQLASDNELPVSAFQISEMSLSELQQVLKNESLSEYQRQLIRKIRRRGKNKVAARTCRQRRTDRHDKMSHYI

fMet-Leu-Phe receptor = target: T3, fMet-Leu-Phe receptor (Homo sapiens, UniProt P21462); assay: FPR ligands, dose response (AID 519); format: functional
T3 sequence (P21462 whole entry): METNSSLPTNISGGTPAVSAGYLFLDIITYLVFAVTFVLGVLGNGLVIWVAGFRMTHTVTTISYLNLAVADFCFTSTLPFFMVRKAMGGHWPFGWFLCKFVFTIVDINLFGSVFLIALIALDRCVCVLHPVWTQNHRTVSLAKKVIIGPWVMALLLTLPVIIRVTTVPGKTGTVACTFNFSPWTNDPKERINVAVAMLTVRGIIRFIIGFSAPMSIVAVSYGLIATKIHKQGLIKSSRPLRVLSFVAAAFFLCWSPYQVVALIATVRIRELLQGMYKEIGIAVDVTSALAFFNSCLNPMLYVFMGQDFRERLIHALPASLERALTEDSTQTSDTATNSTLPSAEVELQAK

Cytochrome P450 1A2 = target: T4, Cytochrome P450 1A2 (Homo sapiens, UniProt P05177);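 also: PubChem cytochrome P450 panel assay, CYP1A2 panel member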
T4 sequence (P05177 whole entry): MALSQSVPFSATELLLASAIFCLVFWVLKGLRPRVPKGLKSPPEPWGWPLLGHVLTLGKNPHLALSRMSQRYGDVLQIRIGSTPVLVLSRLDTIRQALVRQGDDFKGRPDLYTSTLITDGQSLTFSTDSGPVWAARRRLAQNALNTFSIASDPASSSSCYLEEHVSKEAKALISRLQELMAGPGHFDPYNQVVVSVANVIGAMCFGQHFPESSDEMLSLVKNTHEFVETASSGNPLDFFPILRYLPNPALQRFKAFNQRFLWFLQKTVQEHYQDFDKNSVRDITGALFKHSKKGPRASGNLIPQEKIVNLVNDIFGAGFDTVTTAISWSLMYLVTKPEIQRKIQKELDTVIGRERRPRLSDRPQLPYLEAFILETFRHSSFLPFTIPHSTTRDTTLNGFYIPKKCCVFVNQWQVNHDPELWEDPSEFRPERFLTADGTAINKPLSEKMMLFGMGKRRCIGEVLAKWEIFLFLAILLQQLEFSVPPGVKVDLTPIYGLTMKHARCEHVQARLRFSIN

Hexokinase = Hexokinase (Trypanosoma brucei, UniProt Q38C41); assay: Confirmation assay for inhibitors of Trypanosoma brucei hexokinase 1-Analogue-first series. [Related pubchem assays (depositor defined):AID1430, AID1632, AID2516, AID2560, AID2579, AID2600, AID449725, AID492951]; format: functional
[18] = target: T5, Mannose-6-phosphate isomerase (Homo sapiens, UniProt P34949); assay: PMI enzyme inhibitors, confirmation, biochemical, fluorescence intensity (AID 1535)
T5 sequence (P34949 whole entry): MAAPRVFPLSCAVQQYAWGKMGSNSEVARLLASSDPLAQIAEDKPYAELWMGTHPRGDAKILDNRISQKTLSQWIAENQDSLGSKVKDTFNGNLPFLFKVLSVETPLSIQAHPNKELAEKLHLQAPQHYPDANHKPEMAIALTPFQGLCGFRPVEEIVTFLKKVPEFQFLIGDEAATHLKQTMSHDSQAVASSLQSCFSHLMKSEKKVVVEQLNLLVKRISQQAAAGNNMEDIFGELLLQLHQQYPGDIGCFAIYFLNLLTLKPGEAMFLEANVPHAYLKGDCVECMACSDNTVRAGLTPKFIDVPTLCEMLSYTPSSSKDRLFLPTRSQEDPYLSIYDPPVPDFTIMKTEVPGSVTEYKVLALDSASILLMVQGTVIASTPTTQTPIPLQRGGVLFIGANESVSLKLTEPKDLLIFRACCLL

Phosphomannomutase 2 = Phosphomannomutase 2 (Homo sapiens, UniProt O15305); assay: Counter screen SAR assay for PMM2 inhibitors via a fluorescence intensity assay. [Related pubchem assays (depositor defined):AID1545, AID1574]
[19] = target: Phosphoethanolamine/phosphocholine phosphatase (Homo sapiens, UniProt Q8TCT1); assay: SAR assay for compounds that inhibit PHOSPHO1. [Related pubchem assays (depositor defined):AID1545, AID1565, AID1574]
Phospholipase D1 = Phospholipase D1 (Homo sapiens, UniProt Q13393); assay: PLD1 inhibitor potency in cells, dose response (AID 602151); format: functional;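 also: cellular PLD1 assay in Calu-1 cells stimulated with PMA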
Phospholipase D2 = Phospholipase D2 (Homo sapiens, UniProt O14939); assay: PLD2 inhibitor potency in cells, dose response (AID 602147); format: functional;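 also: cellular assay in HEK293 cells overexpressing GFP-tagged PLD2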
Sequence of Phospholipase D2 (O14939 whole entry): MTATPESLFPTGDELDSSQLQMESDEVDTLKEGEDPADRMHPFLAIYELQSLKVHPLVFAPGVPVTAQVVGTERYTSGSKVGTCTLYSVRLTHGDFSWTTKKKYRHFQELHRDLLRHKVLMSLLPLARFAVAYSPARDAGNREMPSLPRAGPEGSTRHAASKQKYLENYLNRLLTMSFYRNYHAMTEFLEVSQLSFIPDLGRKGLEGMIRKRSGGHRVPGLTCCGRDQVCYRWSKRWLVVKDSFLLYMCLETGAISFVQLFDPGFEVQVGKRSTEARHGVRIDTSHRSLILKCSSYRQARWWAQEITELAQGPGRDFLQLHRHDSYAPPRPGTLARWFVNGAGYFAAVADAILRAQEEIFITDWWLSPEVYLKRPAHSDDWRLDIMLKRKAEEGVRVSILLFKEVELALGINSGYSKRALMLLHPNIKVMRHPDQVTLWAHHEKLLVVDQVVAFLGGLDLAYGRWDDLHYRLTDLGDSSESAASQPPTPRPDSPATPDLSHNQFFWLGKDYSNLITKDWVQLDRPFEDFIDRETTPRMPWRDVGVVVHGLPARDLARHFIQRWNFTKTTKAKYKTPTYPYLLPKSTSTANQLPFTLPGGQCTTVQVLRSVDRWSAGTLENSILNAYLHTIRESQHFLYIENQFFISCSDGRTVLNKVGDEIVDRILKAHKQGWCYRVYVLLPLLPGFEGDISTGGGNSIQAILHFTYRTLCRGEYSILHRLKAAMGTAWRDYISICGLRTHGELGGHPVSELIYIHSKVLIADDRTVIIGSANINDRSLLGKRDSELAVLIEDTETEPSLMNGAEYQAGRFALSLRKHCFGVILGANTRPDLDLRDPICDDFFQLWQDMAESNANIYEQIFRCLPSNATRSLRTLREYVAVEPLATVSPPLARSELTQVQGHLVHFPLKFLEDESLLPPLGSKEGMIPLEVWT

Sequence of Cytochrome P450 2D6 (P10635 whole entry): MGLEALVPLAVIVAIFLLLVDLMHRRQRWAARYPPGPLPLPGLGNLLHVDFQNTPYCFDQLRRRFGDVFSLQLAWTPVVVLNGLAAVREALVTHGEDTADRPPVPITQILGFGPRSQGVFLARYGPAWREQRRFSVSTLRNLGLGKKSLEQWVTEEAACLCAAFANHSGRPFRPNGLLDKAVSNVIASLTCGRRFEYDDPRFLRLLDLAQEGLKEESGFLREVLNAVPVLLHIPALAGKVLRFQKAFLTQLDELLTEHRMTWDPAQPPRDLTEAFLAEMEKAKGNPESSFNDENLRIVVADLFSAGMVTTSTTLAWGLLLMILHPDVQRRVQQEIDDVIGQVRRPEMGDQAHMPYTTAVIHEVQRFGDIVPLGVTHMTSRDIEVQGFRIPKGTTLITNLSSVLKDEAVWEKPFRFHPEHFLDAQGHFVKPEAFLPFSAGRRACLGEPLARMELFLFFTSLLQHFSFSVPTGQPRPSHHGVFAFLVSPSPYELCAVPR
Sequence of Nonstructural protein 1 (Q194T2 whole entry): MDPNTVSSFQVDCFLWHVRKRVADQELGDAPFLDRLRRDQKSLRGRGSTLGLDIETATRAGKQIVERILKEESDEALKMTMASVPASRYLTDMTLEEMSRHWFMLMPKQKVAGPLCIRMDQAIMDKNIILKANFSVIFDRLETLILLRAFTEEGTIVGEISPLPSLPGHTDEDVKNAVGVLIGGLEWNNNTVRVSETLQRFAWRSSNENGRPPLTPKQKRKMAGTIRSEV
Sequence of Phosphomannomutase 2 (O15305 whole entry): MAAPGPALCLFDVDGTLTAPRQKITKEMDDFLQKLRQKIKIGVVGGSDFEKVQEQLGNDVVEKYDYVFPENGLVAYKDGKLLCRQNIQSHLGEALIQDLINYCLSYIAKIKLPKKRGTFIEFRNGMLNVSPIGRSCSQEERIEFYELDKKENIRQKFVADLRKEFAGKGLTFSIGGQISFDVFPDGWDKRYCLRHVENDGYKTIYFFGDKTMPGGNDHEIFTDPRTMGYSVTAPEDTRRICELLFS
Sequence of Phospholipase D1 (Q13393 whole entry): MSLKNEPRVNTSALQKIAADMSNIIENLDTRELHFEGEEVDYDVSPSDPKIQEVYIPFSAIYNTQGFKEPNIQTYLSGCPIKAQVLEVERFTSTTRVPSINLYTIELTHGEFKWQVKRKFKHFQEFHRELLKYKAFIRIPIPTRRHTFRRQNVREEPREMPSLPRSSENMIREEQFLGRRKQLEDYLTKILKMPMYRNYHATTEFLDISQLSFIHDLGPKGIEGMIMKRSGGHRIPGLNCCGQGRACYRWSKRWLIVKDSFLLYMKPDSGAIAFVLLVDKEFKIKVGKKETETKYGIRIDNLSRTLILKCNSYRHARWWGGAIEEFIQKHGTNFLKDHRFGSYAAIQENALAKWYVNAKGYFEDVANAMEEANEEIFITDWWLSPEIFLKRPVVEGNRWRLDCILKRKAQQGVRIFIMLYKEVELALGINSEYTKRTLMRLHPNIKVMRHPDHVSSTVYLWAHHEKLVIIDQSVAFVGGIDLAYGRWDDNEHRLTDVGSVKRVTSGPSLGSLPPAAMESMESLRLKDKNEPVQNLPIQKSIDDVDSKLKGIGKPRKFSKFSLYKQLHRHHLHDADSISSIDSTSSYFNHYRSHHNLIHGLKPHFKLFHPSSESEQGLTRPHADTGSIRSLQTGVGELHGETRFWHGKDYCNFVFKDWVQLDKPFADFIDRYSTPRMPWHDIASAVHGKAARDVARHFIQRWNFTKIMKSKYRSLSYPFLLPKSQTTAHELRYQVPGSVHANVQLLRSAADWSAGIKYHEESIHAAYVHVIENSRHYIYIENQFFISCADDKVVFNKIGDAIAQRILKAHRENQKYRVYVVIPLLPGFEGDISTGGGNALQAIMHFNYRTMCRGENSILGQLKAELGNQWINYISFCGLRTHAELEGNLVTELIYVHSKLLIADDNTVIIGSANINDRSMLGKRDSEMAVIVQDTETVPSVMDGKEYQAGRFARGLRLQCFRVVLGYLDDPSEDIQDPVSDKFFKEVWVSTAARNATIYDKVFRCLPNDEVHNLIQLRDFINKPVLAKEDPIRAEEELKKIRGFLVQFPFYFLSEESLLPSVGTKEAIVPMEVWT
Sequence of Phosphoethanolamine/phosphocholine phosphatase (Q8TCT1 whole entry): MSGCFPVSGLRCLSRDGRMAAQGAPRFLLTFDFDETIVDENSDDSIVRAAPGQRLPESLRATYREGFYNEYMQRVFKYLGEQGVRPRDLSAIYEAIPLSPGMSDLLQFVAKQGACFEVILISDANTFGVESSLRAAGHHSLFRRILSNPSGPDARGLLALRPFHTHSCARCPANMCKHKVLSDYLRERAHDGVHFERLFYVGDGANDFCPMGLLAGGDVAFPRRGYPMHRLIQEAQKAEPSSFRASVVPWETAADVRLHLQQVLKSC
Sequence of Hexokinase (Q38C41 whole entry): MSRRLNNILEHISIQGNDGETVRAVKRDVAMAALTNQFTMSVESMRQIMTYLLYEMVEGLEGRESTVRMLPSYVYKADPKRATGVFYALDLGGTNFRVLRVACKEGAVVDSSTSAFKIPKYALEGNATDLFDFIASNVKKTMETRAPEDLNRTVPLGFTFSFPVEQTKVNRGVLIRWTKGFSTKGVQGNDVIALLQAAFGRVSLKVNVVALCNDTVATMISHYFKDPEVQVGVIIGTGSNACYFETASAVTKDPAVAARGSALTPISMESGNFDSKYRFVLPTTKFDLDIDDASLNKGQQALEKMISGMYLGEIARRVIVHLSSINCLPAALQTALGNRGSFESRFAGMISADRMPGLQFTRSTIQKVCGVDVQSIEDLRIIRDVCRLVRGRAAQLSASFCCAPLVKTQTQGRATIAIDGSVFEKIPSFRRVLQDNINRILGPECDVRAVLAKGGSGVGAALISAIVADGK
Sequence of Cytochrome P450 2C19 (P33261 whole entry): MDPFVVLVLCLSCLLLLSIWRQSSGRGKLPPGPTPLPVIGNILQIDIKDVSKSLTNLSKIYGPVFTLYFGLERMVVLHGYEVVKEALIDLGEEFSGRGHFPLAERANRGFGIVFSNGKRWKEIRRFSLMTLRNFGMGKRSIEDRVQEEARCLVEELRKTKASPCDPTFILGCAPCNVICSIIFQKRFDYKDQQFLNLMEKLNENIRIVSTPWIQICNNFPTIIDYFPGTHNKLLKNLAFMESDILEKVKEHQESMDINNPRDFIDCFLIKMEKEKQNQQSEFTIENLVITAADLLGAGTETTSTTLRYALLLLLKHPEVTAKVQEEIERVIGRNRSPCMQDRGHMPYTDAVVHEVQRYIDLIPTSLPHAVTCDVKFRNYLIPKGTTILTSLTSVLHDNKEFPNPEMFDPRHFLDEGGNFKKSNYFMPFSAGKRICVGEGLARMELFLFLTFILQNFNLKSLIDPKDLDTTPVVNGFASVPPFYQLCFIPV
Sequence of CAAX prenyl protease 2 (Q9Y256 whole entry): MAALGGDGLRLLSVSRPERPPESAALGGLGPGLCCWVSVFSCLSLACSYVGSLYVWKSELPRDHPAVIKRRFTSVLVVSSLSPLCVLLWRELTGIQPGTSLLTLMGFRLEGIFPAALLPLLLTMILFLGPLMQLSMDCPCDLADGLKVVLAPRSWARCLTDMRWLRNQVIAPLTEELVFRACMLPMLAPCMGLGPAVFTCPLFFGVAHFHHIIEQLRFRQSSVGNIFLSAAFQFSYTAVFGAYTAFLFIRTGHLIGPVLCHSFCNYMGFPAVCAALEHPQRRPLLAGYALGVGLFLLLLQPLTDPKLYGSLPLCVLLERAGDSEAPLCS

## O=C1C2CC=CCC2C(=O)N1c1ccc(NCCc2ccccc2)c([N+](=O)[O-])c1 (stereo not given)
[1]
  AC50: 0.209 µM (active)
[2]
  EC50: 13.4 µM (active)
[3]
  AC50: 36.3 µM (active)

## Cc1c(N=C2NC3(CCCCC3)Cc3ccccc32)c(=O)n(-c2ccccc2)n1C
Escherichia coli
  AC50: > 150 µM (inactive)

## COc1cc(-c2nnc3sc(-c4cccs4)nn23)cc(OC)c1OC
[4]
  IC50: 1.64 µM (active)
[5]
  IC50: 13.9 µM (inactive)

## Cc1ccc(OCC(=O)NNC(=O)CCC(=O)NCc2ccccc2)cc1
Cytochrome P450 2C19
  AC50: 0.00562 µM (inconclusive)
Cytochrome P450 2D6
  AC50: inconclusive

## OCCN1CCN(C(S)=Nc2ccc(Oc3ccccc3)cc2)CC1
Escherichia coli
  AC50: 82.3 µM (active)

## CCCOc1ccccc1N=C(N)Nc1nc(C)cc(C)n1
[4]
  IC50: 1.29 µM (active)
[5]
  IC50: 2.56 µM (active)

## CN(C)CCCN(C(=O)c1cc(-c2cccs2)nc2ccccc12)c1nc2ccc(F)cc2s1
[6]
  EC50: > 60 µM (not active)
[7]
  EC50: 12.2 µM (active)
[8]
  EC50: 8.08 µM (active)
[9]
  CC50: 25.1 µM (active)
CAAX prenyl protease 2
  AC50: 29 µM (active)

## CC(C)c1onc(C(=O)N2CCN(C(c3ccccc3)c3ccccc3)CC2)c1[N+](=O)[O-]
BJ [10]
  EC50: 0.621 µM (inconclusive)
[11]
  EC50: 3.16 µM (active)
BJ [12]
  EC50: 14.4 µM (inconclusive)
BJ [13]
  EC50: > 150 µM (not active)
[14]
  EC50: 2.69 µM (active)
BJ [15]
  EC50: 5.72 µM (active)

## O=C(NC(=S)NNC(=O)c1ccccc1O)c1cccs1
Exodeoxyribonuclease V
  IC50: 79.9 µM (inactive)
Nonstructural protein 1
  IC50: 10.6 µM (active)
[16]
  IC50: 66.1 µM (inactive)
[17]
  IC50: > 122 µM (inactive)

## Cc1ccc(C)c(-n2c(CNC(=O)c3ccco3)nnc2SCC(=O)N2CCc3ccccc32)c1
Protein skinhead-1
  IC50: > 100 µM (inactive)
fMet-Leu-Phe receptor
  Ki: > 66.7 µM (inactive)
Cytochrome P450 1A2
  AC50: 2.51 µM (inconclusive)
Cytochrome P450 2D6
  AC50: inconclusive

## N#Cc1ccc(NC(=O)Cn2sc3ccccc3c2=O)cc1
Hexokinase
  IC50: 6.97 µM (active)

## CN(C)c1ccc(-n2sc3ccccc3c2=O)cc1
[18]
  IC50: 21.4 µM (active)
Phosphomannomutase 2
  IC50: > 100 µM (inactive)
[19]
  IC50: 11.4 µM (inactive)

## O=c1c2ccccc2sn1-c1cccc(S(=O)(=O)Nc2ccc(Cl)cc2)c1
[18]
  IC50: 1.59 µM (active)
Phosphomannomutase 2
  IC50: 9.44 µM (active)
[19]
  IC50: 8.2 µM (inactive)

## O=C(NCCN1CCC(n2c(=O)[nH]c3ccccc32)CC1)c1cc([N+](=O)[O-])cc([N+](=O)[O-])c1
Phospholipase D1
  IC50: 0.27 µM (active)
Phospholipase D2
  IC50: 1.32 µM (active)

## O=C(NCCN1CCC(n2c(=O)[nH]c3ccccc32)CC1)Nc1cccc(F)c1
Phospholipase D1
  IC50: 0.078 µM (active)
Phospholipase D2
  IC50: 2.3 µM (active)

## COc1ccc(/C=C2\CCC/C(=C\C=N\N(C)C)C2=O)cc1
[9]
  CC50: 9.83 µM (active)
[1]
  AC50: 25 µM (active)
Nonstructural protein 1
  IC50: 50.6 µM (active)
[3]
  AC50: 20.8 µM (active)
